Measurements: ChEMBL document CHEMBL1201862, “PubChem BioAssay data set” (2004)
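Step 1: Grow cells in 96-well plates. Step 2: Expose to compound for 48 hours at 5 concentrations. Step 3: Interpolate endpoints linearly; if unreached, use highest concentration. Abbreviation: GI50, concentration required for 50% inhibition of growth.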 Active and inactive are the calls of the source. No stated cut-off is given here; in the data, active = GI50 up to about 1.1 µM and inactive = higher.

Experiments:
Experiment in all cases: NCI-60 cell line screen, 48 h
RPMI-8226 = system: RPMI-8226
DU-145 = system: DU-145
SF-539 = system: SF-539
SNB-19 = system: SNB-19
UO-31 = system: UO-31
MDA-MB-435 = system: MDA-MB-435
A498 = system: A498
SK-MEL-28 = system: SK-MEL-28
HT-29 = system: HT-29
OVCAR-3 = system: OVCAR-3
NCI-H226 = system: NCI-H226
NCI-H522 = system: NCI-H522
HCC 2998 = system: HCC 2998
Malme-3M = system: Malme-3M
MOLT-4 = system: MOLT-4
SW-620 = system: SW-620
KM12 = system: KM12
786-0 = system: 786-0
OVCAR-5 = system: OVCAR-5
ACHN = system: ACHN
PC-3 = system: PC-3
UACC-257 = system: UACC-257
U-251 = system: U-251
HCT-15 = system: HCT-15
SNB-75 = system: SNB-75
LOX IMVI = system: LOX IMVI
RXF 393 = system: RXF 393
MDA-MB-231 = system: MDA-MB-231
BT-549 = system: BT-549
SN12C = system: SN12C
T47D = system: T47D
SK-MEL-5 = system: SK-MEL-5
EKVX = system: EKVX
OVCAR-8 = system: OVCAR-8
A549 = system: A549
COLO 205 = system: COLO 205
M14 = system: M14
NCI-H23 = system: NCI-H23
NCI-H460 = system: NCI-H460
K562 = system: K562
HL-60 = system: HL-60
MCF7 = system: MCF7
OVCAR-4 = system: OVCAR-4
CCRF-CEM = system: CCRF-CEM
CAKI-1 = system: CAKI-1
UACC-62 = system: UACC-62
Hs-578T = system: Hs-578T
HOP-62 = system: HOP-62
HCT-116 = system: HCT-116
SR = system: SR
SK-OV-3 = system: SK-OV-3
SF-295 = system: SF-295
SK-MEL-2 = system: SK-MEL-2
SF-268 = system: SF-268
MDA-N = system: MDA-N
TK-10 = system: TK-10
IGROV-1 = system: IGROV-1
HOP-92 = system: HOP-92
NCI/ADR-RES = system: NCI/ADR-RES

Measured: GI50

C=C[C@]1(C)CC(=O)C(C(C)C=O)[C@]12C(=O)Oc1cccc(C)c1C2=O (some centres undefined)
inactive: RPMI-8226 8.22 µM | DU-145 16.8 µM | SF-539 16.2 µM | SNB-19 12.2 µM | UO-31 15.5 µM | MDA-MB-435 15.2 µM | A498 25.9 µM | SK-MEL-28 15.2 µM | HT-29 13.7 µM | OVCAR-3 15.9 µM | NCI-H226 15.3 µM | NCI-H522 3.72 µM | HCC 2998 17.7 µM | Malme-3M 18 µM | MOLT-4 23.9 µM | SW-620 11.8 µM | KM12 14.7 µM | 786-0 16.4 µM | OVCAR-5 16.6 µM | ACHN 15.6 µM | PC-3 13.3 µM | UACC-257 17.6 µM | U-251 14.6 µM | SNB-75 16.4 µM | LOX IMVI 14 µM | RXF 393 13.9 µM | MDA-MB-231 17.6 µM | BT-549 14.3 µM | SN12C 16.3 µM | T47D 16.4 µM | SK-MEL-5 13.2 µM | EKVX 19.4 µM | OVCAR-8 16.1 µM | A549 18 µM | COLO 205 17.3 µM | M14 16.3 µM | NCI-H23 17.1 µM | NCI-H460 16.6 µM | K562 12.9 µM | HL-60 4 µM | MCF7 16.5 µM | OVCAR-4 17.2 µM | CCRF-CEM 2.26 µM | CAKI-1 14.4 µM | UACC-62 16.1 µM | Hs-578T 16.3 µM | HOP-62 20.2 µM | HCT-116 7.85 µM | SR 27 µM | SK-OV-3 16.6 µM | SF-295 15.5 µM | SK-MEL-2 17.1 µM | SF-268 24.1 µM | MDA-N 14.5 µM | TK-10 14.8 µM
14.9 µM: HCT-15

Cc1cc(C)c(/N=N/c2c(O)c(S(=O)(=O)O)cc3cc(S(=O)(=O)O)ccc23)cc1C
> 100 µM: HCT-15
inactive: RPMI-8226 > 100 µM | DU-145 > 100 µM | SNB-19 > 100 µM | UO-31 > 100 µM | MDA-MB-435 > 100 µM | A498 > 100 µM | SK-MEL-28 > 100 µM | HT-29 > 100 µM | OVCAR-3 > 100 µM | NCI-H226 > 100 µM | NCI-H522 > 100 µM | IGROV-1 > 100 µM | Malme-3M > 100 µM | MOLT-4 > 100 µM | SW-620 > 100 µM | KM12 > 100 µM | 786-0 48.9 µM | OVCAR-5 > 100 µM | ACHN > 100 µM | PC-3 > 100 µM | UACC-257 > 100 µM | U-251 > 100 µM | SNB-75 > 100 µM | LOX IMVI > 100 µM | HOP-92 > 100 µM | RXF 393 > 100 µM | MDA-MB-231 > 100 µM | BT-549 > 100 µM | SN12C > 100 µM | T47D > 100 µM | SK-MEL-5 > 100 µM | EKVX > 100 µM | OVCAR-8 > 100 µM | A549 > 100 µM | COLO 205 > 100 µM | M14 > 100 µM | NCI-H23 > 100 µM | K562 > 100 µM | NCI/ADR-RES > 100 µM | OVCAR-4 > 100 µM | CCRF-CEM > 100 µM | CAKI-1 > 100 µM | UACC-62 > 100 µM | Hs-578T > 100 µM | HOP-62 > 100 µM | HCT-116 > 100 µM | SK-OV-3 > 100 µM | SF-295 > 100 µM | SK-MEL-2 > 100 µM | SF-268 > 100 µM | MDA-N > 100 µM | TK-10 > 100 µM
